Test results published in ChEMBL document CHEMBL1129035, “Tyrosine kinase inhibitors. 9. Synthesis and evaluation of fused tricyclic quinazoline analogues as ATP site inhibitors of the tyrosine kinase activity of the epidermal growth factor receptor” (J Med Chem, 1996).

How the values were obtained:
[1] = molecular target: T1, Epidermal growth factor receptor (Homo sapiens, UniProt P00533); experiment: Inhibition of tyrosine kinase activity of Epidermal growth factor receptor from human A431 carcinoma cells
T1 sequence (P00533 whole entry): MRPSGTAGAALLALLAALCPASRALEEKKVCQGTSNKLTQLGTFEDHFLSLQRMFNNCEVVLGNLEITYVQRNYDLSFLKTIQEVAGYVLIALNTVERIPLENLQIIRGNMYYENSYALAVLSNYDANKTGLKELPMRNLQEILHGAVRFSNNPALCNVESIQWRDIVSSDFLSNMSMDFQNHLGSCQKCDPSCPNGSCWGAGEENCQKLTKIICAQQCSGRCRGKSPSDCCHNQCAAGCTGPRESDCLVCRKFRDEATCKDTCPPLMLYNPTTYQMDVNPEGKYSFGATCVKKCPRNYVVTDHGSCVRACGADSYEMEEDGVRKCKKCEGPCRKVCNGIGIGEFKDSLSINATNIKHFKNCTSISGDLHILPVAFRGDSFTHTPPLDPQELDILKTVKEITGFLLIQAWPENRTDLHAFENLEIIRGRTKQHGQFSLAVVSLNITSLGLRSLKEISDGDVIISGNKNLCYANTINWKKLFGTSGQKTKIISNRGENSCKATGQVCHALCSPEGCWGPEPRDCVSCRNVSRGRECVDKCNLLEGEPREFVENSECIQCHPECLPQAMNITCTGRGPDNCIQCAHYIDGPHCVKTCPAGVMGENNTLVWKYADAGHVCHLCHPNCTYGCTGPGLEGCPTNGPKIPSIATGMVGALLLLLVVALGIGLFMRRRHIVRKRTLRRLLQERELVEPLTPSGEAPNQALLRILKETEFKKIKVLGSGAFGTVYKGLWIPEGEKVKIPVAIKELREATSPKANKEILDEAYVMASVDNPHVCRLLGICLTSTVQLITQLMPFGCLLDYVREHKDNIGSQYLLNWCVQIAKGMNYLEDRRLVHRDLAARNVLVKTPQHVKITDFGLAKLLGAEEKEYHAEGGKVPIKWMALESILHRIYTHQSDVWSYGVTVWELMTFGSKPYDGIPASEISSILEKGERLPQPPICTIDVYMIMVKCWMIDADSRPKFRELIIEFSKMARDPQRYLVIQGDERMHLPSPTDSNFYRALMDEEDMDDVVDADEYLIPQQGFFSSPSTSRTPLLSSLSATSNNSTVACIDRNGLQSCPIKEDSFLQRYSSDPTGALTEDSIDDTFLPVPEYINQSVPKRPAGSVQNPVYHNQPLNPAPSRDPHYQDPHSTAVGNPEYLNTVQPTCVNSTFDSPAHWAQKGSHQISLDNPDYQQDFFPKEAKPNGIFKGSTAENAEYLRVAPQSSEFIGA

[2] = molecular target: T1, Epidermal growth factor receptor; experiment: Inhibition of tyrosine kinase activity of Epidermal growth factor receptor from human A431 cells
[3] = molecular target: Platelet-derived growth factor receptor (Mus musculus, UniProt P05622+P26618); experiment: Inhibition of PDGF-mediated mitogenesis in Swiss 3T3 cells; format: functional, cell-based
[4] = Inhibition of Platelet-derived growth factor receptor
[5] = molecular target: Fibroblast growth factor receptor (Mus musculus, UniProt P21803+Q03142+P16092+Q61851); experiment: Inhibition of FGF-mediated mitogenesis in Swiss 3T3 cells; format: functional, cell-based
[6] = Inhibitory activity against v-src enzyme.
Insulin receptor = Insulin receptor (Homo sapiens, UniProt P06213); experiment: Inhibition of Insulin receptor.
Insulin receptor, sequence (P06213 28-758 limits assumed): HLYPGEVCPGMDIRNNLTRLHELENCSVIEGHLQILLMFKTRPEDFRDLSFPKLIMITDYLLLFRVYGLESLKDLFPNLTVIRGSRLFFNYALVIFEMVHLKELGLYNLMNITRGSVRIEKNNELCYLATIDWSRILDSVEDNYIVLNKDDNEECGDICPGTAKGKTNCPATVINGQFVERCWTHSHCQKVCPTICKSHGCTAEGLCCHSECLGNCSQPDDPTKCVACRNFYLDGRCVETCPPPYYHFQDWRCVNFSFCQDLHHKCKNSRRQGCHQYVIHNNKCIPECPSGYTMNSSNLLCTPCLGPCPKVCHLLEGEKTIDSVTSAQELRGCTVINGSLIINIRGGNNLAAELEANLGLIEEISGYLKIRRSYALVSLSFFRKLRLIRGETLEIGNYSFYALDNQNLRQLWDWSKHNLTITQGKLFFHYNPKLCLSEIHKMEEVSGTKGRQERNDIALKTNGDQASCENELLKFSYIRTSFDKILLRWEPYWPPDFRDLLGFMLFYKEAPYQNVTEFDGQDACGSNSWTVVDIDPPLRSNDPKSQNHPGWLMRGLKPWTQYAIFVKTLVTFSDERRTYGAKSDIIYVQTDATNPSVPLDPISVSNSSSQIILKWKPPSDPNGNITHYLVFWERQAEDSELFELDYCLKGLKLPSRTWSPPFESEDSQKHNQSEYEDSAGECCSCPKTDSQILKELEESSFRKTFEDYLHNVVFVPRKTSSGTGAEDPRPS
Insulin receptor, sequence (P06213 763-1382 limits assumed): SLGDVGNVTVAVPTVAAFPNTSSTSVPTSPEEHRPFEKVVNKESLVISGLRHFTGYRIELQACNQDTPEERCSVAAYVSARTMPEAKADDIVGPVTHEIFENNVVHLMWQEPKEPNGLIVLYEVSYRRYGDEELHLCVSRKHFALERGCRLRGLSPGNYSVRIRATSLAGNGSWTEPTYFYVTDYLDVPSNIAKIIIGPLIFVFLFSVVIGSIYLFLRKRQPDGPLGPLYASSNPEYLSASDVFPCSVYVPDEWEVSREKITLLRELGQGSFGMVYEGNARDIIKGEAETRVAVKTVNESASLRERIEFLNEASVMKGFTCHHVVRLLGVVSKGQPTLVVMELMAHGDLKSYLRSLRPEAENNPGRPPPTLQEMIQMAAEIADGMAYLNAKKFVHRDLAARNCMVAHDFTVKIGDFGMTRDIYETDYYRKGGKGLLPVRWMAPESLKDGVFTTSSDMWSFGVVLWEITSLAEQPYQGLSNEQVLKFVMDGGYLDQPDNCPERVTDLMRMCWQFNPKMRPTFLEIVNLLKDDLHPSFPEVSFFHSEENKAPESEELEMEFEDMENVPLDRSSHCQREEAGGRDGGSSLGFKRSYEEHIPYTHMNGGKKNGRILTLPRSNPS

[7] = molecular target: Fibroblast growth factor receptor (Homo sapiens, UniProt P22607+P11362+P22455+P21802); experiment: Inhibition of Fibroblast growth factor receptor; format: protein assay
Protein kinase C (PKC) = experiment: Inhibition of Protein kinase C; format: protein assay
[8] = molecular target: Proto-oncogene tyrosine-protein kinase Src (Homo sapiens, UniProt P12931); experiment: Inhibition of c-src enzyme.
Proto-oncogene tyrosine-protein kinase Src, sequence (P12931 2-536 limits assumed): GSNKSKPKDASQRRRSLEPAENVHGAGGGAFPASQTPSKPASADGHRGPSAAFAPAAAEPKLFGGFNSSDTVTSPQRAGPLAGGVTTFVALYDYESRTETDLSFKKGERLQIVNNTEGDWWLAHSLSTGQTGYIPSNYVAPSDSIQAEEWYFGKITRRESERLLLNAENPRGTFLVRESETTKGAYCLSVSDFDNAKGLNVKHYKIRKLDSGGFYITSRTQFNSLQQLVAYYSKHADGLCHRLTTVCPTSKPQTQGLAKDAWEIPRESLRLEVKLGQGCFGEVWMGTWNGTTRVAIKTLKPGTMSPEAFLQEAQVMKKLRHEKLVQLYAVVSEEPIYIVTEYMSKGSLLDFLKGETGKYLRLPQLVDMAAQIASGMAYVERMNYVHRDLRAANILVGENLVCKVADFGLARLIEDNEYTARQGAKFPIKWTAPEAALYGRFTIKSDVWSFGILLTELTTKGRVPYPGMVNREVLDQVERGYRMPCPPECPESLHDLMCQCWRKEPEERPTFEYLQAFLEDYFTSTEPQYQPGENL

IC50 [1]	IC50 [2]	Compound	also measured
0.01 nM	–	Cn1cnc2cc3ncnc(Nc4cccc(Br)c4)c3cc21	–
–	1.32 nM	CN(C)CCn1cnc2cc3ncnc(Nc4cccc(Br)c4)c3cc21	–
–	0.34 nM	Brc1cccc(Nc2ncnc3cc4cn[nH]c4cc23)c1	–
–	0.44 nM	Brc1cccc(Nc2ncnc3cc4[nH]ncc4cc23)c1	–
0.29 nM	–	Cc1nc2cc3ncnc(Nc4cccc(Br)c4)c3cc2[nH]1	–

Second part, the compound before the results:

Compound	IC50 [1]	IC50 [2]	also measured
Brc1cccc(Nc2ncnc3ccc4cc[nH]c4c23)c1	1.24 nM	–	–
Brc1cccc(Nc2ncnc3c2ccc2[nH]cnc23)c1	272 nM	–	–
Brc1cccc(Nc2ncnc3cc4[nH]nnc4cc23)c1	–	4.1 nM	–
CN(C)CCn1cnc2cc3c(Nc4cccc(Br)c4)ncnc3cc21	–	22 nM	–
Brc1cccc(Nc2ncnc3cc4ncsc4cc23)c1	44 nM	–	–
Brc1cccc(Nc2ncnc3cc4[nH]ccc4cc23)c1	0.44 nM	–	–
CN(C)CCn1cnc2c(Cl)c3c(Nc4cccc(Br)c4)ncnc3cc21	–	203 nM	–
Brc1cccc(Nc2ncnc3cc4ccccc4cc23)c1	0.003 nM	–	–
Brc1cccc(Nc2ncnc3cc4[nH]cnc4cc23)c1	–	–	IC50 [3]: > 50000 nM; IC50 [4]: > 50000 nM; IC50 [5]: > 50000 nM; IC50 [6]: > 50000 nM; IC50 (Insulin receptor): > 50000 nM; IC50 [7]: > 50000 nM; IC50 (Protein kinase C (PKC)): > 50000 nM; IC50 [8]: > 50000 nM
